We go through 2 molecules from patent publication US20210276960A1, “INHIBITORS OF TISSUE TRANSGLUTAMINASE 2 (TG2) AND USES THEREOF” (Northwestern University, priority 2020, published 2021).

Structures are written as SMILES.

For one data set, the target named is T1, TG2 (Cavia cutleri, UniProt P08587).
T1 construct: purchased Sigma T5398
Briefly: Isothermal titration calorimetry (ITC). In kind it is binding. The procedure: The 45 kDa fibronectin fragment (FN45) corresponding to the TG2 binding region (Sigma, # F0162) was biotinylated using Biotin (Type A) Fast Conjugation Kit (Abcam, # ab201795). Biotinylated FN45 (10 μg/mL in PBS) was captured on pre-hydrated streptavidin-coated sensors (Pall Forte Bio SAX 18-5117). At each TG2 concentration, the binding kinetics were determined by following this sequence run: baseline (PBS for 30 s), association step (varying concentrations of TG2 in PBS for 120 s), and dissociation step (PBS for 120 s). A new FN45 biosensor was prepared for each run. To analyze the effect of the inhibitor MT4 on the interaction between TG2 and FN, a solution of 20 μg/mL of bio-FN45 was used for capturing FN45 on the streptavidin-coated sensors and the association step was 90 s. For each sensor, the capturing step was measured in real-time in order to assess the stability of the signal and the reproducibility between sensors. The saturation level Rmax was 0.6 (+0.08) for all sensors and no dissociation of the biotinylated FN45 was observed over 60 minutes. […] For the experiments with (TG2+MT4), controls were performed at each MT4 concentration and Rmax values were corrected for non-specific binding and any effects of DMSO on the TG2-FN45 interaction (these effects were below 8%). All BLI experiments were performed at 22° C. […]
On the technique in general: ITC needs no label: the signal is the heat of the interaction.

The test system of data set [1] is OVCAR433 cells adhesion to FN. Briefly: Solid phase adhesion assay to FN, OVCAR433. It is filed as cell-based. The arrangement: inhibition of adhesion to FN relative to TG53: dose or concentration left out as unconfirmed. The method, then: (§1) Cells labeled with calcein AM (Life Technologies, #L3224) were seeded at a density of 4×10^4 cells in 96-well plates pre-coated with FN (5 μg/mL, Sigma, #F1141), and blocked using 1% BSA (Sigma, #A9647) in PBS in the presence of selected compounds diluted at the specified concentrations, in serum free media. After 45 minutes, unattached cells were washed using PBS containing 1 mM MgCl2(Sigma, #M8266) and adherent cells were quantified in a SpectraMaxGeminiXS fluorescence plate reader (Molecular Devices, Palo Alto, Calif.) at 530 nm wavelength. Experiments were performed inquadruplicate and repeated at least twice.

The subject of data set [2] is OVCAR5 cells adhesion to FN. Briefly: Solid phase adhesion assay to FN, OVCAR5. The arrangement: inhibition of adhesion to FN relative to TG53: dose or concentration left out as unconfirmed. In kind it is cell-based, human. The method, then: as §1
Data set [3] relates to OVCAR433 cells adhesion onto LP9 monolayers. Briefly: Cell adhesion to LP9 mesothelial monolayers, OVCAR433. It is filed as cell-based. The conditions noted are these: at concentrations >10 μM. The method, then: LP9 mesothelial cells added to clear-bottom 96-well plate at 12,000 cells/well were grown to confluency over 48 hours (h). OC cells were labeled with calcein AM and seeded at a density of 4×10^4 cells to monolayers of mesothelial cells and incubated for 1 h. Non-adherent cells were removed by washing with PBS.

The subject of data set [4] is SKOV3 cells adhesion to collagen-1. As to the kind of experiment: SKOV3 adhesion to collagen-1 coated wells. It is filed as cell-based. As to conditions: 25 μM, collagen-1 20 μg/ml. The procedure: FIG. 13. Top SMIs inhibit cell adhesion to FN. A, Effects of top compounds (25 μM) on SKOV3 cells adhesion to FN. B, Dose-dependent effects (1-25 μM) of TG53 on SKOV3 cell adhesion to FN. […] D, Effects of TG53 (25 μM) on SKOV3 cells adhesion to wells coated with collagen-1 (20 μg/ml). E, Effects of TG53 (25 μM) on SKOV3-control or AS-TG2 cells adhesion to FN. Bars represent means+/−SEM of quadruplicate measurements. * denote p<0.05.
as §1

The test system of data set [5] is TG2 co-localization with integrin β1, p-FAK, c-Src, p-c-Src in SKOV3 cells. As to the kind of experiment: Confocal IF co-localization analysis. In kind it is cell-based. As to conditions: 1 μM. The procedure:
In order to analyze cell adhesion complex proteins expression and localization upon early attachment, cells were treated as stated above and then seeded onto FN-coated cover slips for 30 minutes at 37° C. Samples were fixed in 4% p-formaldehyde (PFA) and permeabilized with 0.2% Triton-X-100. After blocking, focal contacts were identified by using anti-vinculin antibodies, activation of integrins signaling pathway was assessed by antibodies against phosphorylated focal adhesion kinase (FAK), while actin cytoskeleton was labeled by Alexa Fluor 488-conjugated phalloidin (Life Technologies, #A12379). Nuclei were stained with 1:10000 Hoechst (Thermo Scientific) and specimens were mounted in Prolong Gold anti-fadereagent (Life Technologies). Cells were analyzed by laser scanning using a Nikon A1RGaAsPConfocal Laser Microscope. For co-localization analyses, SKOV3 cells were treated with DMSO (control) or TG53 (1 μM) and plated on FN-coated chamber slides (BD Biosciences) for 72 hrs. […] Colocalization percentage was calculated by normalizing the pixels corresponding to Cy5 or Alexa Fluor 488 emissions to DAPI pixels in the same cell, followed by merging area of green with area of red and determination of average of overlap areas. A Student' t test was calculated to determine statistical significance of differences between drug treated and DMSO control treated cells.

For another data set, the target named is T2, purified TG2 (UniProt P08587).
T2 construct: purchased Sigma T5398
T2 sequence (P08587 whole entry): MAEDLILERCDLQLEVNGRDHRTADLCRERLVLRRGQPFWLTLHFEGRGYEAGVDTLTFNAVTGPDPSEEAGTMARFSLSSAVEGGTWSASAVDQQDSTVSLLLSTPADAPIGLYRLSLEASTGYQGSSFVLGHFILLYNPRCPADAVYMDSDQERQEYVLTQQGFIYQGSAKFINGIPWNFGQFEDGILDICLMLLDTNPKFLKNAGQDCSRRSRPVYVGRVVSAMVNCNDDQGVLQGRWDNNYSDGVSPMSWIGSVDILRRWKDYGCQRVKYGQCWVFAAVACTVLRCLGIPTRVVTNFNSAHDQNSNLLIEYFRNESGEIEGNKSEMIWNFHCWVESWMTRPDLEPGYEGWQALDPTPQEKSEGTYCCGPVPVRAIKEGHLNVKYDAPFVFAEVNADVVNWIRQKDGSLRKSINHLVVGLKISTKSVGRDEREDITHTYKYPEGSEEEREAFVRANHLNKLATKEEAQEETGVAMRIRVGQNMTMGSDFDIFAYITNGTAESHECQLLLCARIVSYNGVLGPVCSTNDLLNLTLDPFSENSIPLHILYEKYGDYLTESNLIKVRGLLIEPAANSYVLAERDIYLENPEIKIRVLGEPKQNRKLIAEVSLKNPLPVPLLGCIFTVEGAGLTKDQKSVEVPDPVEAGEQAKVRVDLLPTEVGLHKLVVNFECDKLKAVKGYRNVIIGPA
The conditions noted are these: not shown, see ref 11; cited from earlier work.

In another data set the test system is OC cells. The conditions noted are these: 10 μM; not shown, see ref 11; cited from earlier work.

T1 sequence (P08587 whole entry): as above
Protocol for Tolerability in vivo: Three doses were administered 25, 50 and 100 mg/kg to cohorts of 3 mice. A) Average weights, B) average white blood cell counts (WBC), C) average hemoglobin (Hgb) and D) average platelet (Plt) counts measured 1 week after administration at the 3 doses (n=3).

For orientation: Kd means the free concentration of one partner at which half of the binding sites on the other are occupied at equilibrium, for simple one-to-one binding. Regarding `Cc1cc(N(C)C)nc(Nc2ccc(NC(=O)Cc3ccccc3)cc2)n1` [MT-4], the equilibrium dissociation constant (Kd) on TG2 was determined as 5.1 µM. The “change in enthalpy, ΔH” value on TG2 (160 μM MT4 titrated into 10 μM TG2, 25° C.) is -20.5 kcal/mol. Also, the “inhibition of adhesion to FN relative to TG53” value in [1] and in data set [2] was “more active than TG53” in each case. Besides, the “cell adhesion to FN, dose dependence” value in data set [1] (2 μM-25 μM) and in data set [2] (2 μM-25 μM) was “dose-dependent inhibitory effect” throughout. The “OVCAR433 adhesion to the LP9 layer” value in [3] is listed as “dose-dependent inhibitory effect”.
Consider `COc1ccc(Cl)cc1C(=O)Nc1ccc(Nc2nc(C)cc(N(C)C)n2)cc1` [TG53], for which, in data set [4], the adhesion to collagen entry is listed as “did not inhibit”. Besides, in [5], the “FAK and Src phosphorylation” value is given as “marked decrease”; the “colocalization of TG2 with integrin β1, pFAK, c-Src and pSrc” value is given as “significant decrease”. In addition, the hematological toxicity entry in the data set “Tolerability in vivo” (WBC, Hgb, Plt 1 week after administration) was “did not induce”. The tolerated dose result in “Tolerability in vivo” (doses 25, 50 and 100 mg/kg) was “up to 50 mg/kg”. For the same molecule, on purified TG2, the TG2 enzymatic activity entry is listed as “did not inhibit”. For the same molecule, the “wound closure, cell migration rate, and invasion through matrigel coated trans-well plates” value with OC cells is given as “decreased”.
